Assay in all cases: Bacterial growth minimal inhibitory concentration (broth microdilution, CLSI M7-A7)
Common to all, as to assay type: cell-based
(Dilution methods test growth across graded concentrations, often in twofold steps.)

Test [1] has as its system Staphylococcus aureus A798. The following applies: Staphylococcus aureus, A798, cation-adjusted Mueller-Hinton Broth, multiply-resistant strain (in particular quinolone-resistant), read-out: MIC for S. aureus A798. The procedure, abridged: (§1)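 Broth microdilution after CLSI M7-A7 in cation-adjusted Mueller-Hinton medium gave MIC values in mg/L.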
Test [2] relates to Moraxella catarrhalis A894. The following applies: Moraxella catarrhalis, A894, cation-adjusted Mueller-Hinton Broth, quinolone-sensitive strain. The procedure, abridged: as §1
In test [3] the test system is Acinetobacter baumannii T6474. The following applies: Acinetobacter baumannii, T6474, cation-adjusted Mueller-Hinton Broth, multiply-resistant strain (in particular quinolone-resistant). In a few lines: as §1
Test [4] relates to Staphylococcus aureus ATCC29213. To be noted: Staphylococcus aureus, ATCC29213, cation-adjusted Mueller-Hinton Broth, methicillin-sensitive and quinolone-sensitive strain, read-out: MIC for S. aureus ATCC29213. The procedure, abridged:
as §1

The test system of test [5] is Enterococcus faecium A949. The following applies: Enterococcus faecium, A949, cation-adjusted Mueller-Hinton Broth, multiply-resistant strain (in particular quinolone-resistant), read-out: MIC for E. faecium A949. The procedure, abridged: as §1

≈ marks a conversion by molar mass, not a printed value.

The term MIC denotes the lowest concentration found to suppress growth.

In the case of `N#Cc1ncccc1-c1cccc(CNCC[C@H]2CN(c3ccc4c(n3)NC(=O)CO4)C(=O)O2)c1` [Example 73, 3-[3-({2-[(S)-2-oxo-3-(3-oxo-3,4-dihydro-2H-pyrido[3,2-b][1,4]oxazin-6-yl)-oxazolidin-5-yl]-ethylamino}-methyl)-phenyl]-pyridine-2-carbonitrile], the minimum inhibitory concentration (MIC) is 2 µg/mL (≈ 4.25 µM) in test [1]; ≤ 0.063 µg/mL in test [2]; 1 µg/mL (≈ 2.13 µM) in test [3]; 0.5 µg/mL (≈ 1.06 µM) in test [4]; 16 µg/mL (≈ 34 µM) in test [5].
For `COc1cccc(-c2cccc(CNCCc3nn(-c4ccc5c(n4)NC(=O)CO5)c(=O)o3)c2O)n1` [Example 74, 6-(5-{2-[2-hydroxy-3-(6-methoxy-pyridin-2-yl)-benzylamino]-ethyl}-2-oxo-[1,3,4]oxadiazol-3-yl)-4H-pyrido[3,2-b][1,4]oxazin-3-one], the MIC in test [1] is 0.063 µg/mL (≈ 0.128 µM); in test [2], ≤ 0.016 µg/mL; in test [3], 0.25 µg/mL (≈ 0.51 µM); in test [4], 0.125 µg/mL (≈ 0.255 µM); in test [5], 0.5 µg/mL (≈ 1.02 µM).
With `COc1cc(-c2cccc(CNCC[C@H]3CN(c4ccc5c(n4)NC(=O)CO5)C(=O)O3)c2)ccc1C#N` [Example 75, 3-methoxy-3′-({2-[(S)-2-oxo-3-(3-oxo-3,4-dihydro-2H-pyrido[3,2-b][1,4]oxazin-6-yl)-oxazolidin-5-yl]-ethylamino}-methyl)-biphenyl-4-carbonitrile], the MIC in test [1] was 0.5 µg/mL (≈ 1 µM); in test [2] it was ≤ 0.063 µg/mL; in test [3], 1 µg/mL (≈ 2 µM); in test [4], 0.5 µg/mL (≈ 1 µM); in test [5], 8 µg/mL (≈ 16 µM).
With `COc1ccc(C#N)cc1-c1cccc(CNCC[C@H]2CN(c3ccc4c(n3)NC(=O)CO4)C(=O)O2)c1` [Example 76, 6-methoxy-3′-({2-[(S)-2-oxo-3-(3-oxo-3,4-dihydro-2H-pyrido[3,2-b][1,4]oxazin-6-yl)-oxazolidin-5-yl]-ethylamino}-methyl)-biphenyl-3-carbonitrile], the MIC in test [1] was 1 µg/mL (≈ 2 µM); in test [2] it was ≤ 0.063 µg/mL; in test [3], 2 µg/mL (≈ 4 µM); in test [4], 0.5 µg/mL (≈ 1 µM); in test [5], 8 µg/mL (≈ 16 µM).
Consider `COC(=O)c1cccc(-c2cccc(CNCC[C@H]3CN(c4ccc5c(n4)NC(=O)CO5)C(=O)O3)c2)c1` [Example 77, 3′-({2-[(S)-2-oxo-3-(3-oxo-3,4-dihydro-2H-pyrido[3,2-b][1,4]oxazin-6-yl)-oxazolidin-5-yl]-ethylamino}-methyl)-biphenyl-3-carboxylic acid methyl ester], for which the MIC in test [1] is 0.25 µg/mL (≈ 0.497 µM); in test [2], ≤ 0.063 µg/mL; in test [3], 2 µg/mL (≈ 3.98 µM); in test [4], 0.5 µg/mL (≈ 0.995 µM); in test [5] it was 4 µg/mL (≈ 7.96 µM).
Regarding `CNC(=O)COc1cccc(-c2cccc(CNCC[C@H]3CN(c4ccc5c(n4)NC(=O)CO5)C(=O)O3)c2)c1` [Example 78, N-methyl-2-[3′-({2-[(S)-2-oxo-3-(3-oxo-3,4-dihydro-2H-pyrido[3,2-b][1,4]oxazin-6-yl)-oxazolidin-5-yl]-ethylamino}-methyl)-biphenyl-3-yloxy]-acetamide], the MIC in test [1] came out at 1 µg/mL (≈ 1.88 µM); in test [2], 0.031 µg/mL (≈ 0.0583 µM); in test [3] it was 1 µg/mL (≈ 1.88 µM); in test [4], 0.5 µg/mL (≈ 0.941 µM); in test [5], 8 µg/mL (≈ 15 µM).
Consider `COc1ccc(-c2cccc(CNCC[C@H]3CN(c4ccc5c(n4)NC(=O)CO5)C(=O)O3)c2)nn1` [Example 79, 6-((S)-5-{2-[3-(6-methoxy-pyridazin-3-yl)-benzylamino]-ethyl}-2-oxo-oxazolidin-3-yl)-4H-pyrido[3,2-b][1,4]oxazin-3-one], for which the MIC was determined as 0.5 µg/mL (≈ 1.05 µM) in test [1]; 0.063 µg/mL (≈ 0.132 µM) in test [2]; 0.5 µg/mL (≈ 1.05 µM) in test [3]; 0.5 µg/mL (≈ 1.05 µM) in test [4]; 8 µg/mL (≈ 16.8 µM) in test [5].
For the molecule `N#Cc1cnnc(-c2cccc(CNCC[C@H]3CN(c4ccc5c(n4)NC(=O)CO5)C(=O)O3)c2)c1` [Example 80, 6-[3-({2-[(S)-2-oxo-3-(3-oxo-3,4-dihydro-2H-pyrido[3,2-b][1,4]oxazin-6-yl)-oxazolidin-5-yl]-ethylamino}-methyl)-phenyl]-pyridazine-4-carbonitrile], the minimum inhibitory concentration (MIC) in test [1] was 0.5 µg/mL (≈ 1.06 µM); in test [2] it was 0.031 µg/mL (≈ 0.0658 µM); in test [3], 0.25 µg/mL (≈ 0.53 µM); in test [4], 0.5 µg/mL (≈ 1.06 µM); in test [5], > 8 µg/mL.
With `COc1cnnc(-c2cccc(CNCC[C@H]3CN(c4ccc5c(c4)NC(=O)CO5)C(=O)O3)c2)c1` [Example 81, 6-((S)-5-{2-[3-(5-methoxy-pyridazin-3-yl)-benzylamino]-ethyl}-2-oxo-oxazolidin-3-yl)-4H-benzo[1,4]oxazin-3-one], the MIC in test [1] is 1 µg/mL (≈ 2.1 µM); in test [2], 0.063 µg/mL (≈ 0.132 µM); in test [3], 1 µg/mL (≈ 2.1 µM); in test [4], 0.5 µg/mL (≈ 1.05 µM); in test [5], > 8 µg/mL.
In the case of `N#Cc1cccc(-c2cccc(CNCC[C@H]3CN(c4ccc5c(c4)NC(=O)CO5)C(=O)O3)c2)c1` [Example 82, 3′-({2-[(S)-2-oxo-3-(3-oxo-3,4-dihydro-2H-benzo[1,4]oxazin-6-yl)-oxazolidin-5-yl]-ethylamino}-methyl)-biphenyl-3-carbonitrile], the MIC in test [1] was 0.5 µg/mL (≈ 1.07 µM); in test [2] it was ≤ 0.016 µg/mL; in test [3], 0.5 µg/mL (≈ 1.07 µM); in test [4] it was 0.5 µg/mL (≈ 1.07 µM); in test [5], 4 µg/mL (≈ 8.54 µM).
Consider `COc1cnnc(-c2cccc(CNCCc3cn(-c4ccc5c(n4)NC(=O)CO5)c(=O)o3)c2)c1` [Example 83, 6-(5-{2-[3-(5-methoxy-pyridazin-3-yl)-benzylamino]-ethyl}-2-oxo-oxazol-3-yl)-4H-pyrido[3,2-b][1,4]oxazin-3-one], for which the MIC was 0.063 µg/mL (≈ 0.133 µM) in test [1]; ≤ 0.016 µg/mL in test [2]; 0.063 µg/mL (≈ 0.133 µM) in test [3]; 0.063 µg/mL (≈ 0.133 µM) in test [4]; 2 µg/mL (≈ 4.22 µM) in test [5].
Take `CCOc1cncc(-c2cccc(CNCC[C@H]3CN(c4ccc5c(n4)NC(=O)CO5)C(=O)O3)c2)c1` [Example 84, 6-((S)-5-{2-[3-(5-ethoxy-pyridin-3-yl)-benzylamino]-ethyl}-2-oxo-oxazolidin-3-yl)-4H-pyrido[3,2-b][1,4]oxazin-3-one]: the MIC is 0.125 µg/mL (≈ 0.255 µM) in test [1]; ≤ 0.063 µg/mL in test [2]; 0.5 µg/mL (≈ 1.02 µM) in test [3]; 0.25 µg/mL (≈ 0.511 µM) in test [4]; 8 µg/mL (≈ 16.3 µM) in test [5].
For `COc1cccc(-c2cccc(CNCCc3cn(-c4ccc5c(n4)NC(=O)CO5)c(=O)o3)c2O)n1` [Example 85, 6-(5-{2-[2-hydroxy-3-(6-methoxy-pyridin-2-yl)-benzylamino]-ethyl}-2-oxo-oxazol-3-yl)-4H-pyrido[3,2-b][1,4]oxazin-3-one] the same measures were ≤ 0.016 µg/mL, ≤ 0.016 µg/mL, 0.125 µg/mL (≈ 0.255 µM), ≤ 0.016 µg/mL and 0.5 µg/mL (≈ 1.02 µM).
On to `COc1cccc(-c2cccc(CNCC[C@H]3CN(c4ccc5c(n4)NC(=O)CO5)C(=O)O3)c2)c1C#N` [Example 86, 3-methoxy-3′-({2-[(S)-2-oxo-3-(3-oxo-3,4-dihydro-2H-pyrido[3,2-b][1,4]oxazin-6-yl)-oxazolidin-5-yl]-ethylamino}-methyl)-biphenyl-2-carbonitrile], for which the MIC is 0.5 µg/mL (≈ 1 µM) in test [1]; ≤ 0.016 µg/mL in test [2]; 8 µg/mL (≈ 16 µM) in test [3]; 0.125 µg/mL (≈ 0.25 µM) in test [4]; 4 µg/mL (≈ 8.01 µM) in test [5].
Taken in the same sequence, the figures for `COc1cccc(-c2cc(CNCC[C@H]3CN(c4ccc5c(n4)NC(=O)CO5)C(=O)O3)ccn2)n1` [Example 87, 6-((S)-5-{2-[(6′-methoxy-[2,2]bipyridinyl-4-ylmethyl)-amino]-ethyl}-2-oxo-oxazolidin-3-yl)-4H-pyrido[3,2-b][1,4]oxazin-3-one] were 0.063 µg/mL (≈ 0.132 µM), ≤ 0.016 µg/mL, 0.25 µg/mL (≈ 0.525 µM), 0.125 µg/mL (≈ 0.262 µM) and 2 µg/mL (≈ 4.2 µM).
In the case of `N#Cc1cccc(-c2cccc(CNCC[C@H]3CN(c4ccc5c(c4)NC(=O)CO5)C(=O)O3)c2O)n1` [Example 88, 6-[2-hydroxy-3-({2-[(S)-2-oxo-3-(3-oxo-3,4-dihydro-2H-benzo[1,4]oxazin-6-yl)-oxazolidin-5-yl]-ethylamino}-methyl)-phenyl]-pyridine-2-carbonitrile], the MIC in test [1] was 0.25 µg/mL (≈ 0.515 µM); in test [2], ≤ 0.016 µg/mL; in test [3], 0.25 µg/mL (≈ 0.515 µM); in test [4] it was 0.125 µg/mL (≈ 0.257 µM); in test [5] it was 4 µg/mL (≈ 8.24 µM).
On to `COc1cnnc(-c2cc(CNCC[C@H]3CN(c4ccc5c(n4)NC(=O)CO5)C(=O)O3)ccc2O)c1` [Example 89, 6-((S)-5-{2-[4-hydroxy-3-(5-methoxy-pyridazin-3-yl)-benzylamino]-ethyl}-2-oxo-oxazolidin-3-yl)-4H-pyrido[3,2-b][1,4]oxazin-3-one], for which the MIC was 0.063 µg/mL (≈ 0.128 µM) in test [1]; ≤ 0.016 µg/mL in test [2]; 0.125 µg/mL (≈ 0.254 µM) in test [3]; 0.063 µg/mL (≈ 0.128 µM) in test [4]; 8 µg/mL (≈ 16.2 µM) in test [5].
As to `COc1cccc(-c2cccc(CNCC[C@H]3CN(c4ccc5c(c4)NC(=O)CO5)C(=O)O3)c2O)n1` [Example 90, 6-((S)-5-{2-[2-hydroxy-3-(6-methoxy-pyridin-2-yl)-benzylamino]-ethyl}-2-oxo-oxazolidin-3-yl)-4H-benzo[1,4]oxazin-3-one], the MIC in test [1] is 0.031 µg/mL (≈ 0.0632 µM); in test [2], ≤ 0.016 µg/mL; in test [3] it was 0.5 µg/mL (≈ 1.02 µM); in test [4] it was 0.063 µg/mL (≈ 0.128 µM); in test [5] it was 2 µg/mL (≈ 4.08 µM).

The record behind these values is patent US9527867B2, “Antibacterial biaromatic derivatives” (Actelion Pharmaceuticals Ltd., priority 2013, dated 2016).
